Measurements taken from the supplement of paper PMC10933113.
Structures can show the parent of a compound that is named as a salt. ± gives the uncertainty stated by the source.

Legend:
[1] = test system: THP-1; test: efficacy of IL-8 induction relative to DMSO (% activity); higher = stronger induction; details: exposure time: 18 h
[2] = test system: cysteine peptide Ac-RFAACAA-COOH; test: efficacy of cysteine peptide change (negative = depletion) (% activity); higher = less depletion; details: incubation time: 24 h
[3] = test system: KeratinoSens (HaCaT ARE-luciferase) cells; test: efficacy of ARE luciferase induction relative to DMSO (% activity over DMSO); higher = stronger induction; details: exposure time: 24 h
[4] = test system: cysteine peptide Ac-RFAACAA-COOH; test: AC50 of cysteine peptide concentration-response (direction given by sign of efficacy); higher = less potent; details: incubation time: 24 h
[5] = test system: lysine peptide Ac-RFAAKAA-COOH; test: efficacy of lysine peptide change (negative = depletion) (% activity); higher = less depletion; details: incubation time: 24 h
[6] = test system: KeratinoSens (HaCaT ARE-luciferase) cells; test: cytotoxicity AC50 (CellTiter-Fluor viability); higher = less cytotoxic; details: exposure time: 24 h

Structure (SMILES) | efficacy of IL-8 induction [1] | efficacy of cysteine peptide change [2] | efficacy of ARE luciferase induction [3] | AC50 [4] [µM] | efficacy of lysine peptide change [5] | cytotoxicity AC50 [6] [µM]
COP(=S)(OC)Oc1nc(Cl)c(Cl)cc1Cl [Chlorpyrifos-methyl] | 0 | -104.3 ± 0.97 | 29.7 ± 29 | 6.5 ± 1.8 | 32.7 ± 12 | 
CCOP(=S)(OCC)Oc1nc(Cl)c(Cl)cc1Cl [Chlorpyrifos] | 8.52 ± 1.5 | -97.5 ± 7.8 | 32.7 ± 17 | 9.18 ± 2.6 | 26.7 ± 11 | 
COC(=O)Nc1nc2ccc(C(=O)C3CC3)cc2[nH]1 [Cyclobendazole] | 24.9 ± 13 | -42.3 ± 2.6 | 21.4 ± 9.4 | 10.1 ± 5.7 | -14 ± 5.3 | 3 ± 0.85
O=C1c2cccc(O)c2C(=O)c2c(O)cccc21 [Danthron] | 2.66 ± 9.7 | -72.3 ± 21 | 15 ± 14 | 4.77 ± 1.4 | -14.7 ± 8 | 
CCOP(=S)(OCC)SC(CCl)N1C(=O)c2ccccc2C1=O (stereo not given) [Dialifor] | 5.64 ± 12 | -101 ± 9.9 | 63 ± 32 | 3.87 ± 0.66 | -69.5 ± 7.4 | 66.8 ± 15
c1cc(OCC2CO2)cc(OCC2CO2)c1 (stereo not given) [Diglycidyl resorcinol ether (DGRE)] | 29.2 ± 11 | -8.5 ± 7.8 | 74.5 ± 5.8 |  | 46.9 ± 8.6 | 63.9 ± 12
CCCCC/C=C\C=C\C(=O)OCC [Ethyl (2E,4Z)-deca-2,4-dienoate] | 24.4 ± 5.7 | -99.8 ± 5.5 | 68.2 ± 0.72 | 13.7 ± 2.3 | -21.2 ± 2.9 | 
CO[C@@H]1[C@H](OC(=O)/C=C/C=C/C=C/C=C/C(=O)O)CC[C@]2(CO2)[C@H]1[C@@]1(C)O[C@@H]1CC=C(C)C [Fumagillin] | 0 | -117 ± 8.1 | -9.86 ± 16 | 23 ± 9 | 19.2 ± 21 | 
OCc1ccco1 [Furfuryl alcohol] | 0 | -74.1 ± 7.2 | 37.8 ± 37 | 74.3 ± 13 | -37.2 ± 5.8 | 
CC[C@@]1(O)C(=O)OCc2c1cc1n(c2=O)Cc2c-1nc1ccccc1c2/C=N/OC(C)(C)C [Gimatecan] | 24.2 ± 3.5 | -75.2 ± 18 | 57.7 ± 22 | 38.5 ± 5.3 | 30.4 ± 65 | 0.99 ± 0.6
ClC1=C(Cl)C(Cl)(Cl)C(Cl)=C1Cl [Hexachlorocyclopentadiene] | 83.1 ± 8.1 | -137 ± 8.4 | 48.2 ± 5.1 | 30.4 ± 13 | -11.3 ± 2.7 | 
Cc1c(C)n(Cc2ccccc2)c2ccc(C(=O)OCCN(C)C)cc12 [Indocate] | 17 ± 9.1 | 17.7 ± 6 | 22.8 ± 4.9 |  | 90.6 ± 13 | 28.7 ± 6.6
Clc1ccc(C(Cn2ccnc2)OCc2c(Cl)cccc2Cl)c(Cl)c1 (stereo not given) [Isoconazole] | 8.24 ± 7.5 | 1.83 ± 9.7 | 15 ± 17 |  | 65.7 ± 12 | 13.1 ± 0.89
COP(=S)(Oc1cc(Cl)c(Br)cc1Cl)c1ccccc1 (stereo not given) [Leptophos] | 33.4 ± 20 | -94.8 ± 3.7 | 21.4 ± 11 | 41.6 ± 5.3 | 3.37 ± 19 | 46.5 ± 3.1
C=CC(C)(CCC=C(C)C)OC(=O)CC(C)C (stereo not given) [Linalyl isovalerate] | 0 | -30.6 ± 8 | 4.06 ± 7 | 6.04 ± 4.1 | 2.12 ± 19 | 
CCOC(=O)CC(SP(=S)(OC)OC)C(=O)OCC (stereo not given) [Malathion] | 1.28 ± 2.2 | -114 ± 8.5 | 10.2 ± 27 | 3.05 ± 0.2 | 38.6 ± 20 | 
CC(C)Nc1ccc(Nc2ccccc2)cc1 [N-Isopropyl-N'-phenyl-p-phenylenediamine] | 40.6 ± 19 | -67.5 ± 20 | -24.8 ± 11 | 2.82 ± 1 | -5.38 ± 9.3 | 20.5 ± 6.5

Structure (SMILES) | efficacy of IL-8 induction [1] | efficacy of cysteine peptide change [2] | efficacy of ARE luciferase induction [3] | AC50 [4] [µM] | efficacy of lysine peptide change [5] | cytotoxicity AC50 [6] [µM]
CNC(=S)NN [N-Methylhydrazinecarbothioamide] | 91.8 ± 17 | -58.5 ± 10 | -12.3 ± 42 |  | -0.75 ± 9.8 | 22.5 ± 2.6
Nc1ccc(Nc2ccccc2)cc1 [N-Phenyl-1,4-benzenediamine] | 5.67 ± 11 | -101.7 ± 0.97 | 48.5 ± 28 | 7.77 ± 3.2 | -11.4 ± 12 | 
CCCCCCCCCCCC(=O)NCCCN(C)C [N-[3-(Dimethylamino)propyl]dodecanamide] | 36.3 ± 13 | 18 ± 19 | 4.32 ± 44 |  | 168 ± 11 | 42.1 ± 9.5
O=C(N/N=C/c1ccc([N+](=O)[O-])o1)c1cc([N+](=O)[O-])cc([N+](=O)[O-])c1O [Nifursol] | 0 | -105 ± 6.6 | 25.2 ± 9.3 | 77.9 ± 29 | -10.9 ± 19 | 
Nc1ccc(/N=N/c2ccccc2)c(N)n1 [Phenazopyridine hydrochloride] | 51.3 ± 29 | -35 ± 6.8 | 35.5 ± 17 |  | 26.2 ± 4.5 | 66.8 ± 15
N#CCC#N [Propanedinitrile] | 0 | -64.6 ± 10 | 31.6 ± 5.9 | 72.9 ± 20 | 8.33 ± 14 | 
Fc1ccc(Oc2ccnc3cc(Cl)cc(Cl)c23)cc1 [Quinoxyfen] | 25.9 ± 3.1 | 3.98 ± 6.9 | -5.76 ± 35 |  | -7.82 ± 12 | 57 ± 12
Oc1ccc(/C=C/c2cc(O)cc(O)c2)cc1 [Resveratrol] | 3.12 ± 5.4 | -69.8 ± 10 | 29.2 ± 6.2 | 25.9 ± 11 | -22.5 ± 15 | 
C[n+]1cc2c3c(ccc2c2ccc4cc5c(cc4c21)OCO5)OCO3 [Sanguinarine] | 59.1 ± 21 | 58.9 ± 18 | -34.7 ± 1.6 |  | 114 ± 27 | 7.37 ± 0.5
CCCCCCCCCCCCCC[N+](C)(C)C [Tetradonium bromide] | 43 ± 20 | 61.4 ± 19 | -21.2 ± 4.7 |  | 103 ± 44 | 14.2 ± 1.6
c1ccc2[nH]c(-c3cscn3)nc2c1 [Thiabendazole] | 11.1 ± 3.7 | 2.83 ± 4.9 | 33 ± 4.4 |  | 0.27 ± 31 | 14.8 ± 1.9
CS/C(C)=N\OC(=O)N(C)SN(C)C(=O)O/N=C(\C)SC [Thiodicarb] | 10.8 ± 9.8 | -96.8 ± 3.2 | -25.2 ± 33 | 0.59 ± 0.11 | 38.2 ± 2.7 | 
O=C(CS)Nc1ccccc1 [Thioglycolic acid anilide] | 35.1 ± 9.2 | -109 ± 7.9 | -15.9 ± 47 | 2.54 ± 0.48 | 28 ± 5.4 | 
CCN(CC)CCSC(=O)C(c1ccccc1)c1ccccc1 [Thiphenamil] | 8.63 ± 8 | -82.9 ± 1.6 | 63.3 ± 29 | 18.7 ± 3.4 | 17.2 ± 18 | 
[OH-].c1cc[c]([Sn+]([c]2ccccc2)[c]2ccccc2)cc1 [Triphenyltin hydroxide] | 16.4 ± 2.2 | -39.1 ± 94 | 429 ± 120 |  | 14.6 ± 2.5 | 2.82
CCC(C)(NC(=O)c1cc(Cl)c(C)c(Cl)c1)C(=O)CCl (stereo not given) [Zoxamide] | 84.9 ± 14 | -8.25 ± 7.4 | 60.2 ± 4.2 |  | 19.4 ± 7.3 | 41.4 ± 2.8
